Measured values taken from PMC5340577 (Nuclear medicine and biology, 2016).

Key:
[1] = humans; cited from earlier work
[2] = Stability of Re complex in aqueous solution by ^1H NMR; format: physicochemical; settings: D2O, pH 7

stability in aqueous solution (^1H NMR signals) [2]	Compound	clearance as percent of that of ^131I-OIH [1]
–	O=C([O-])CN=C([O-])CN=C([O-])CN=C([O-])C[S-].[O-2].[Tc+4] [^99mTc-MAG3, ^99mTc-mercaptoacetyltriglycine]	~ 60%
no change for weeks	Na[Re(CO)3(FEDA)] [Re-4]	–
